Measured values published in US12318365B2, “Inhibition of dipeptide repeat proteins” (ALS Therapy Development Institute, priority 2019, dated 2025).
Entries after “also recorded” stand apart in the source; their conditions may differ. Like-named read-outs stand apart in the source and are kept apart here. No end group written: not given here.

Tests used:
NSC-34 cells [1] = test: LDH assay (cytotoxicity) in NSC-34 cells; type: cell-based; conditions: for DRP-induced toxicity: incubated 24 hours; for toxicity: DRP concentrations as low as 300 nM
Source text: LDH Assay: The LDH assay is a colorimetric assay that measures cell toxicity and death. […] When cells lose membrane integrity, an enzyme found in living cells called lactate dehydrogenase (LDH) is released into the solution surrounding the dying cell. A form of programmed cell death, apoptosis, as well as other forms of cell death also ultimately lead to a cell's membrane being destroyed, resulting in a large release of LDH into the extracellular space. Thus, LDH is an excellent marker not only for necrosis, but for all instances of cell death. In an LDH assay, a sample of the solution surrounding the cell is isolated, and transferred to a plate containing an LDH reaction mixture. This reaction mixture contains a tetrazolium salt intermediate and other reaction constituents that, when exposed to LDH, convert the tetrazolium salt into a colored Formazan product. This Formazan product can be quantified spectrophotometrically. Greater absorbance readings correspond to more cell death.
One row on the top and bottom of the plate, and two columns on either side of the plate, were left without cells and contained culture medium only to minimize experimental well volume evaporation. After plating, cells were incubated for 24 h at 37° C., 5% CO2 prior to DRP and/or PRMT inhibitor addition. At time of DRP/PRMT inhibitor addition, desired doses of DRP for challenge and inhibitor for treatment were achieved by diluting aliquots of each stock in warm culture medium. During experiments where both PRMT inhibitors and DRPs were used, PRMT inhibitors were always applied to wells first, and followed by DRP application. […] Inhibitor toxicity controls were included as wells treated with the desired doses of drug for the experiment, but no DRP. DRP toxicity controls were included as wells only treated with the doses of DRP used for challenge. Once dosed, plates were incubated for 24 h at 37° C., 5% CO2 prior to running the WST-1 or LDH assay endpoints. Additional controls needed for each endpoint are specified in the “WST-1 Assay” and “LDH Assay” sections of these methods.
LDH Assay: Cells were plated and prepared using the steps described in the “Plating NSC-34 and Dosing with DRPs and PRMT Inhibitors” section of these methods. Other controls for this experiment included several sets of wells with only cells in culture medium (one triplicate designated for “untreated,” one triplicate designated for “lysed” positive control), and wells with culture medium only. An additional control added only to the transfer plate at time of testing was 5 μL LDH only. Testing was performed using colorimetric LDH-Cytotoxicity Assay Kit II (Abcam, Cambridge, MA, USA) per manufacturer's instructions. Final read at 450 nm was performed on a SpectraMax M3 Microplate Reader (Molecular Devices, San Jose, CA, USA). Data analysis included calculation of % LDH release using the following equation: […]
Experiments included three replicates per condition. Each experiment was repeated twice (executed three times total).
(§1) The following conditions were plated in triplicate.
Plates were incubated for 24 h at 37° C., 5% CO2. Cells were tested and data were analyzed by LDH assay.
(§2) Cells were plated in culture medium in 2 96-well plates at a density of 3.7×10^4 cells per well, and incubated overnight at 37° C., 5% CO2.
as §1
Cells were plated in culture medium in 2 96-well plates at a density of 3.7×10^4 cells per well, and incubated overnight at 37° C., 5% CO2. […]
The following conditions were plated in triplicate. […]

NSC-34 cells [2] = test: BrdU ELISA (proliferation) in NSC-34 cells; type: cell-based, Mouse; conditions: for effect of DRP on proliferation activity: compared to DMSO-treated controls; for abrogation of GR-induced proliferation inhibition: 300 nM GR15, 24 h
Method: BrdU ELISA: The BrdU ELISA is an ELISA detecting cell proliferation activity. BrdU is a pyrimidine analog that, when inside the cell, can be incorporated instead of thymidine into newly synthesized strands of DNA. Just as is indicated by thymidine incorporation into DNA, BrdU incorporation into cell DNA indicates DNA synthesis activity, which is required for cell proliferation. In the BrdU ELISA, cells are treated with test compounds as well as BrdU reagent, and then incubated for 24 hours before testing. During testing, an anti-BrdU antibody detects the incorporation of BrdU into cell DNA that occurred over the 24-hour period, as a surrogate for cell proliferation activity. This anti-BrdU antibody is then labelled with a secondary antibody tagged with a colored substrate, which can be quantified spectrophotometrically. Greater absorbance readings correspond to more cell proliferation activity.
as §2, §1
Plates were incubated for 24 h at 37° C., 5% CO2. Cells were tested and data were analyzed using the procedure detailed in BrdU ELISA kit instructions.
Cells were plated in culture medium in 2 96-well plates at a density of 5×10^4 cells per well, and incubated overnight at 37° C., 5% CO2. […] 10 μL of each concentration would be added to 100 μL base media in plate to achieve final concentrations of 3, 1, 0.3, 0.1, 0.03, and 0.01 μM DRP.
The following conditions were plated in triplicate. Samples were surrounded by border wells on the outside of the plate filled with sterile Phosphate-buffered saline to prevent evaporation of volume in experimental wells during incubation; • Culture medium only • Background (Cells only in culture medium, without BrdU reagent) • Untreated (Cells only in culture medium, with BrdU reagent) • DMSO Controls (Cells treated with BrdU reagent and the amount of DMSO that DRP-treated cells were exposed to at each concentration) • i. The DMSO controls tested were as follows, corresponding to DRP doses starting at the highest (3 μM to the lowest 0.01 μM), and were diluted in culture medium: • 1. 0.03% DMSO • 2. 0.01% DMSO • 3. 0.003% DMSO • 4. 0.001% DMSO • 5. 0.0003% DMSO • 6.

## PRPRPRPRPRPRPRPRPRPRPRPRPRPRPR [PR15]
NSC-34 cells [1]; 24 h
  EC50: 56 ± 20 nM
  toxicity: approximately 10%
NSC-34 cells [1]; DRP 0.01-3 μM
  DRP-induced toxicity: produced significant, dose-dependent toxicity
NSC-34 cells [2]; DRP 0.01-3 μM, 24 h
  rank among DRPs as inhibitor of proliferative activity: the strongest inhibitor
  effect of DRP on proliferation activity: significantly suppressed proliferative activity in a dose-dependent manner

## CC(C)Oc1ccc(-c2c[nH]cc2CN(C)CCN)cc1 [MS023]
NSC-34 cells [1]; 300 nM GR15, 24 h, MS023 60 and 30 μM
  effect on GR15-induced cytotoxicity: significantly amplified cytotoxicity
NSC-34 cells [1]; 300 nM PR15, 24 h, all doses applied (1-60 μM)
  abrogation of PR-induced cytotoxicity: at least partially abrogated
NSC-34 cells [1]; 3 μM ADMe-GR15, 24 h, MS023 0.1-10 μM
  abrogation of ADMe-GR15-induced cytotoxicity: did not abrogate
NSC-34 cells [1]; 3 μM GR15, 24 h, all tested doses (1-60 μM)
  abrogation of GR-induced toxicity: partially abrogated
NSC-34 cells [1]; 3 μM GR15, 24 h, dose range of the example
  dose dependence of abrogation of GR15-induced cytotoxicity: potently, and dose-dependently abrogated; also recorded: consistently dose-dependently abrogated
NSC-34 cells [1]; 3 μM GR15, 24 h, doses 0.01, 0.03, 0.1 and 0.3 μM
  abrogation of GR-induced toxicity: partially abrogated
NSC-34 cells [1]; 3 μM GR15, 24 h, doses 0.3, 1 and 3 μM
  abrogation of GR-induced toxicity: completely abrogated
NSC-34 cells [1]; 3 μM GR15, 24 h, doses 1 and 3 μM
  abrogation of GR15-induced cytotoxicity: completely abrogated
NSC-34 cells [1]; 3 μM GR15 or PR15, 24 h, MS023 0.01-3 μM
  relative potency against GR- vs PR-induced toxicity: more potently abrogated PR-induced toxicity
NSC-34 cells [1]; 3 μM PR15, 24 h, dose range of the example
  dose dependence of abrogation of PR15-induced cytotoxicity: potently, and dose-dependently abrogated
NSC-34 cells [1]; 3 μM PR15, 24 h, doses 0.01, 0.03 and 0.1 μM
  abrogation of PR-induced toxicity: partially abrogated
NSC-34 cells [1]; 3 μM PR15, 24 h, doses 0.03, 0.1, 0.3, 1 and 3 μM
  abrogation of PR-induced toxicity: completely abrogated
NSC-34 cells [1]; 3 μM PR15, 24 h, doses 1 and 3 μM
  abrogation of PR-induced cytotoxicity: fully abrogated; also recorded: completely abrogated
NSC-34 cells [1]; 3 μM PR15, 24 h, doses 10, 30 and 60 μM
  abrogation of PR-induced cytotoxicity: partially abrogated
NSC-34 cells [1]; no DRP, highest dose 60 μM
  cytotoxicity of inhibitor alone: did produce significant cytotoxicity
NSC-34 cells [2]; all doses (1-60 μM)
  abrogation of GR-induced proliferation inhibition: partially abrogated
NSC-34 cells [2]; dose 3 μM
  abrogation of GR-induced proliferation inhibition: fully rescuing
NSC-34 cells [2]; 300 nM GR15 or PR15, 24 h, all doses tested (1-60 μM)
  excessive proliferation: without inducing excessive proliferation
NSC-34 cells [2]; 300 nM PR15, 24 h, all doses (1-60 μM)
  abrogation of PR-induced proliferation inhibition: fully abrogated

## GRGRGRGRGRGRGRGRGRGRGRGRGRGRGR [GR15]
NSC-34 cells [1]; DRP 10 nM-3 μM, 24 h
  cytotoxicity induced by DRP challenge: induced dose-dependent cytotoxicity
NSC-34 cells [1]; DRP 0.01-3 μM, 24 h, read-out: EC50 of DRP-induced toxicity
  EC50: 50 ± 26 nM
NSC-34 cells [1]; DRP 0.01-3 μM
  DRP-induced toxicity: produced significant, dose-dependent toxicity
NSC-34 cells [1]; 24 h
  toxicity: approximately 10%
NSC-34 cells [2]; DRP 0.01-3 μM, 24 h
  effect of DRP on proliferation activity: significantly suppressed proliferative activity in a dose-dependent manner
